Laboratory results taken from US20260085081A1, “PHOSPHATIDYLAMINE COMPOUNDS INCLUDING A PLURALITY OF TERTIARY AMINO GROUP STRUCTURES AND COMPOSITIONS THEREOF” (PEKING UNIVERSITY, priority 2022, published 2026).

Experiments:
[1] = Summary of the strongest expressions over the administration routes; details: strongest level of the three administrations
Description: (§1) Finally, the expression levels of lipid nanoparticles with a plurality of tertiary amine groups from the embodiments of the present disclosure after intramuscular injection, white adipocyte administration, and intraperitoneal injection are summarized, and compared with lipid nanoparticles prepared from commercially available cationic lipids MC3 and SM102. […] However, the expression rates of the phosphatidylamine lipids with a plurality of tertiary amine groups from embodiments of the present disclosure are higher than that of SM102.

white adipocyte = experiment: White adipocyte administration, expression relative to SM102; assay type: cell-based; details: for White adipocyte administration (PL/SM102) expression strength level: ratio of expression PL/SM102; for expression compared with control SM102: white adipocyte administration
Description: as §1

[2] = tested on: Fluc-mRNA (luciferase expression); experiment: In vivo transfection efficiency of Fluc-mRNA lipid nanoparticles after intramuscular injection; set-up: species or system mice; details: for expression in vivo compared with control MC3 / enhancement of in vivo expression with respect to control MC3: DOPE group, weight ratio 10:1; for expression in vivo compared with control MC3 / in vivo transfection (expression, FIG. 5): 3 μg Fluc-mRNA/mouse; for enhancement of in vivo expression with respect to control MC3: 3 g Fluc-mRNA/mouse; for Intramuscular injection (PL/MC3) expression strength level: ratio of expression PL/MC3; for in vivo transfection (expression, FIG. 5): weight ratio lipid nanoparticle/RNA 10:1, DOPE or DSPC group
Procedure: 6 h after intramuscular injection of mRNA LNPs, mice were injected intraperitoneally with 0.2 mL […] (20 mg/mL PBS solution). After 10 min, mice were anesthetized with isoflurane in oxygen in a ventilated anesthesia room and imaged with an imaging system (IVIS, PerkinElmer), and luminescence was quantified using Living Image software (PerkinElmer).

adipose tissue = experiment: Intraperitoneal injection of Fluc-mRNA LNPs, expression and distribution; assay type: in vivo, mice; details: for expression compared with control SM102: intraperitoneal injection; for Intraperitoneal injection (PL/SM102) expression strength level: ratio of expression PL/SM102
Procedure: FIG. 10 illustrates the effect of Fluc-mRNA LNPs composed of different structural cationic lipids on the mRNA delivery efficiency after intraperitoneal administration according to some embodiments of the present disclosure. Targeting and expression of PL lipids on adipose tissue after intraperitoneal administration is also evaluated. […] That is to say, the PL lipid structure with the plurality of tertiary amino group structures may enhance the selective targeting of visceral adipocytes. […]
as §1

NIH-3T3 cells = experiment: Transfection efficiency of lipid nanoparticles in NIH-3T3 cells; assay type: cell-based, murine
Procedure: The prepared cationic compounds (PL1, PL4, PL8, PL10, PL11, PL12, PL13, PL14, PL17, PL18, PL23, PL24, PL26, PL27, PL28, PL29, PL30, PL31, PL32, PL33, PL36, PL38, PL41, PL44, PL45, PL53, PL54, PL55, PL56, PL57, PL58, PL59, PL60, PL61, PL78, PL79, PL93, PL94, PL95, PL96, PL97, PL103), DOPE/DSPC, cholesterol, and DMG-PEG2000 are prepared with ethanol in a molar ratio of 35:16:46.5:2.5 to form the ethanol phase, and RNA is formulated into the aqueous phase with 50 mM citrate buffer solution at pH=4. Lipid nanoparticles are obtained by microfluidic mixing at aqueous phase:ethanol phase=3:1 (v/v), followed by dialysis purification in PBS at pH 7.4 overnight to remove ethanol.
Determination process included: preparing a 96-well plate, inoculating cells (4000 cells/well), adding 100 μL of medium, incubating at 37° C. overnight; after 24 h, adding lipid nanoparticles diluted with medium (achieving the final concentration of RNA of 10 µg/mL), incubating at 37° C. for 24 h, and then adding 50 μL of specialized luciferase substrate to each well, followed by detection using by a microplate reader (chemiluminescence).
FIG. 1A and FIG. 1B illustrate transfection of lipid nanoparticles of a DOPE group and a DSPC group in NIH3T3 cells according to some embodiments of the present disclosure. Specifically, for compounds PL1, PL4, PL6, PL8, PL10, PL11, PL12, lipid nanoparticles are prepared by DOPE and DSPC, respectively, according to an […] (Example 44). The transfection efficiency of these two groups of lipid nanoparticles in cells is first evaluated, and murine fibroblasts NIH-3T3 are selected for incubation (Example 47), and the results are shown in FIG. 1A and FIG. 1B. […] PL10, PL11, and PL12 all include two tertiary amino groups.

| SMILES | Summary of the strongest expressions [1] | White adipocyte administration (PL/SM102) expression strength level (white adipocyte) | expression compared with control SM102 (white adipocyte) | expression in vivo compared with control MC3 [2] | enhancement of in vivo expression with respect to control MC3 [2] | Intramuscular injection (PL/MC3) expression strength level [2] | in vivo transfection (expression, FIG. 5) [2] | expression compared with control SM102 (adipose tissue) | Intraperitoneal injection (PL/SM102) expression strength level (adipose tissue) | transfection efficiency relative to MC3 LNP (NIH-3T3 cells; DOPE group LNP) [fold] | transfection efficiency relative to MC3 LNP (NIH-3T3 cells; DSPC group LNP) [fold] |
| --- | --- | --- | --- | --- | --- | --- | --- | --- | --- | --- | --- |
| CCCCCCCCCCCCN(CCCCCCCCCCCC)CCCN1CCN(CCCNP(=O)(OCCCCCCOC(=O)C(CCCCCC)CCCCCCCC)OCCCCCCOC(=O)C(CCCCCC)CCCCCCCC)CC1 (stereo not drawn) [PL55] | A (A: ≥2) | B (B: ≥1 and <2) | superior to that of the control SM102 | better than that of control MC3 | an order of magnitude enhancement | A (A: ≥2) | expressed | superior to that of the control SM102 | B (B: ≥1 and <2) | – | – |
| CCCCC/C=C\C/C=C\CCCCCCCCOP(=O)(NCCCN(C)C)OCCCCCCCC/C=C\C/C=C\CCCCC [PL1] | – | – | – | – | – | – | expressed | – | – | 16 | – |
| CCCCCCCCCCCCN(CCCCCCCCCCCC)CCCN1CCN(CCCNP(=O)(OCCCCCCCCOC(=O)C(CCCCCC)CCCCCCCC)OCCCCCCCCOC(=O)C(CCCCCC)CCCCCCCC)CC1 (stereo not drawn) [PL58] | A (A: ≥2) | C (C: ≥0.1 and <1) | – | – | – | A (A: ≥2) | expressed | – | C (C: ≥0.1 and <1) | – | – |
| CCCCC/C=C\C/C=C\CCCCCCCCOP(=O)(NCCCN1CCN(CCCN(CC(O)CCCCCCCCCC)CC(O)CCCCCCCCCC)CC1)OCCCCCCCC/C=C\C/C=C\CCCCC (stereo not drawn) [PL23] | A (A: ≥2) | C (C: ≥0.1 and <1) | – | – | – | A (A: ≥2) | expressed | – | C (C: ≥0.1 and <1) | – | – |
| CCCCC/C=C\C/C=C\C/C=C\C/C=C\CCCC(=O)OCCCCCCOP(=O)(NCCCN1CCN(CCCN(CCCCCCCCCCCC)CCCCCCCCCCCC)CC1)OCCCCCCOC(=O)CCC/C=C\C/C=C\C/C=C\C/C=C\CCCCC [PL59] | A (A: ≥2) | A (A: ≥2) | superior to that of the control SM102 | – | – | – | – | – | D (D: <0.1) | – | – |
| CCCCC/C=C\C/C=C\CCCCCCCCOP(=O)(NCCCN(CCCCCCCCCCCC)CCc1ccc(CCN(CCCCCCCCCCCC)CCCCCCCCCCCC)cc1)OCCCCCCCC/C=C\C/C=C\CCCCC [PL22] | C (C: ≥0.1 and <1) | C (C: ≥0.1 and <1) | – | – | – | – | – | – | D (D: <0.1) | – | – |
| CCCCCCCCCCCCN(CCCCCCCCCCCC)CCCN1CCN(CCCNP(=O)(OCCCCCCCCOC(=O)C(CC)CCCCCC)OCCCCCCCCOC(=O)C(CC)CCCCCC)CC1 (stereo not drawn) [PL57] | A (A: ≥2) | B (B: ≥1 and <2) | superior to that of the control SM102 | better than that of control MC3 | an order of magnitude enhancement | A (A: ≥2) | expressed | superior to that of the control SM102 | A (A: ≥2) | – | – |
| CCCCCCCCCCCCN(CCCCCCCCCCCC)CCCN1CCN(CCCNP(=O)(OCCCCCCOC(=O)C(CC)CCCC)OCCCCCCOC(=O)C(CC)CCCC)CC1 (stereo not drawn) [PL53] | A (A: ≥2) | B (B: ≥1 and <2) | superior to that of the control SM102 | better than that of control MC3 | an order of magnitude enhancement | A (A: ≥2) | expressed | – | C (C: ≥0.1 and <1) | – | – |
| CC/C=C\C/C=C\C/C=C\C/C=C\C/C=C\CCCC(=O)OCCCCCCOP(=O)(NCCCN1CCN(CCCN(CC(O)CCCCCCCCCC)CC(O)CCCCCCCCCC)CC1)OCCCCCCOC(=O)CCC/C=C\C/C=C\C/C=C\C/C=C\C/C=C\CC (stereo not drawn) [PL79] | B (B: ≥1 and <2) | B (B: ≥1 and <2) | superior to that of the control SM102 | – | – | – | – | – | C (C: ≥0.1 and <1) | – | – |
| CCCCC/C=C\C/C=C\CCCCCCCCOP(=O)(NCCCN(CCCN(CC(O)CCCCCCCCCC)CC(O)CCCCCCCCCC)CC(O)CCCCCCCCCC)OCCCCCCCC/C=C\C/C=C\CCCCC (stereo not drawn) [PL18] | A (A: ≥2) | C (C: ≥0.1 and <1) | – | – | – | A (A: ≥2) | expressed | – | D (D: <0.1) | – | – |
| CCCCC/C=C\C/C=C\CCCCCCCCOP(=O)(NCCN(CCCCCCCCCC(=O)OC(CC)CCCCC)CCCN(C)C)OCCCC(=O)OCCCCCCCCCCC (stereo not drawn) [PL12] | A (A: ≥2) | D (D: <0.1) | – | – | – | A (A: ≥2) | expressed | – | – | 7 | 1.5 |
| CCCCCCCCCCCCN(CCCCCCCCCCCC)CCCN1CCN(CCCNP(=O)(OCCCCCCOC(=O)C(CC)CCCCCC)OCCCCCCOC(=O)C(CC)CCCCCC)CC1 (stereo not drawn) [PL54] | A (A: ≥2) | B (B: ≥1 and <2) | superior to that of the control SM102 | – | – | A (A: ≥2) | expressed | superior to that of the control SM102 | B (B: ≥1 and <2) | – | – |
| CCCCCCCCCCCCN(CCCCCCCCCCCC)CCCN1CCN(CCCNP(=O)(OCCCCCCCCOC(=O)C(CC)CCCC)OCCCCCCCCOC(=O)C(CC)CCCC)CC1 (stereo not drawn) [PL56] | A (A: ≥2) | B (B: ≥1 and <2) | superior to that of the control SM102 | better than that of control MC3 | an order of magnitude enhancement | A (A: ≥2) | expressed | superior to that of the control SM102 | A (A: ≥2) | – | – |
| CCCCC/C=C\C/C=C\CCCCCCCCOP(=O)(NCCCN(CC(O)CCCCCCCCCC)CC(O)CN(CC(O)CCCCCCCCCC)CC(O)CCCCCCCCCC)OCCCCCCCC/C=C\C/C=C\CCCCC (stereo not drawn) [PL19] | C (C: ≥0.1 and <1) | C (C: ≥0.1 and <1) | – | – | – | – | – | – | D (D: <0.1) | – | – |
| CCCCCCCCCCC(O)CN(CCCN1CCN(CCCNP(=O)(OCCCCCCCCOC(=O)C(CC)CCCC)OCCCCCCCCOC(=O)C(CC)CCCC)CC1)CC(O)CCCCCCCCCC (stereo not drawn) [PL78] | B (B: ≥1 and <2) | B (B: ≥1 and <2) | superior to that of the control SM102 | – | – | – | – | superior to that of the control SM102 | B (B: ≥1 and <2) | – | – |
